Source: patent US9018206B2, “Carboxamide compounds and their use as calpain inhibitors” (AbbVie Deutschland GmbH & Co. KG, priority 2009, dated 2015)

Assays:
Assay type in all cases: biochemical
[1] = molecular target: T1, cathepsin L isolated from human liver (Homo sapiens, UniProt P07711); assay: Cathepsin L enzyme inhibition in vitro (kinetic fluorescence assay); conditions: Ki(cathepsin L)/Ki(calpain) ratio
T1 construct: cathepsin L—isolated from human liver; purchased Calbiochem 219402; host or cells: human liver (tissue-derived)
Experimental: Testing for blockade of the corresponding enzymic activities was carried out by means of kinetic fluorescence assays (excitation 390 nm, emission 460 nm).
Apparent Ki values were calculated from the experimentally determined IC50 values by the Cheng-Prussoff relation assuming a reversible competitive enzyme inhibition. The Km values of the substrates used under the assay conditions indicated above were: 90 μM (Z-Phe-Arg-AMC, cathepsin B), 10 μM (Z-Gly-Pro-Arg-AMC, cathepsin K), 2 μM (Z-Phe-Arg-AMC, cathepsin L), and 30 μM (Z-Val-Val-Arg-AMC, cathepsin S).
The indicated Ki values are averages of the inhibition constants calculated on the basis of 2 to 4 independent dose-effect plots.
• 20 nM calpain-I—isolated from human erythrocytes (Calbiochem #208713), 100 μM Suc-Leu-Tyr-AMC (Bachem #I-1355) as substrate in buffer with 62 mM imidazole, 0.3 mM CaCl2, 0.10% CHAPS, 0.05% BSA, 1 mM DTT at pH 7.3 and room temperature. 1. Cathepsin B: • 0.25 nM cathepsin B—isolated from human liver (Calbiochem #219362), 100 μM Z-Phe-Arg-AMC (Bachem #I-1160) as substrate 50 mM MES, 2 mM EDTA, 0.05% Brij 35, 2.5 mM L-cysteine, pH 6.0, room temperature. 3. Cathepsin K: • 3 nM cathepsin K activated from recombinant human procathepsin K from E. coli (Calbiochem #342001), 10 μM Z-Gly-Pro-Arg-AMC (Biomol #P-142) as substrate in 50 mM MES, 2 mM EDTA, 0.05% Brij 35, 2.5 mM L-cysteine, pH 6.0, room temperature. 4. Cathepsin L: • 1 nM cathepsin L—isolated from human liver (Calbiochem #219402), 2 μM Z-Phe-Arg-AMC (Bachem #I-1160) as substrate in 50 mM MES, 2 mM EDTA, 0.05% Brij 35, 2.5 mM L-cysteine, pH 6.0, room temperature. 5. Cathepsin S: • 0.5 nM recombinant human cathepsin S from E. coli (Calbiochem #219343), 20 μM Z-Val-Val-Arg-AMC (Bachem #I-1540) as substrate in 50 mM MES, 2 mM EDTA, 0.05% Brij 35, 2.5 mM L-cysteine, pH 6.0, room temperature.

[2] = molecular target: T2, calpain-I isolated from human erythrocytes (Homo sapiens, UniProt P07384); assay: Calpain I enzyme inhibition in vitro (kinetic fluorescence assay); conditions: apparent Ki from IC50 (Cheng-Prussoff); 20 nM calpain-I, 100 μM Suc-Leu-Tyr-AMC, pH 7.3, room temperature
T2 construct: calpain-I—isolated from human erythrocytes; purchased Calbiochem 208713; host or cells: human erythrocytes (tissue-derived)
T2 sequence (P07384 1-714): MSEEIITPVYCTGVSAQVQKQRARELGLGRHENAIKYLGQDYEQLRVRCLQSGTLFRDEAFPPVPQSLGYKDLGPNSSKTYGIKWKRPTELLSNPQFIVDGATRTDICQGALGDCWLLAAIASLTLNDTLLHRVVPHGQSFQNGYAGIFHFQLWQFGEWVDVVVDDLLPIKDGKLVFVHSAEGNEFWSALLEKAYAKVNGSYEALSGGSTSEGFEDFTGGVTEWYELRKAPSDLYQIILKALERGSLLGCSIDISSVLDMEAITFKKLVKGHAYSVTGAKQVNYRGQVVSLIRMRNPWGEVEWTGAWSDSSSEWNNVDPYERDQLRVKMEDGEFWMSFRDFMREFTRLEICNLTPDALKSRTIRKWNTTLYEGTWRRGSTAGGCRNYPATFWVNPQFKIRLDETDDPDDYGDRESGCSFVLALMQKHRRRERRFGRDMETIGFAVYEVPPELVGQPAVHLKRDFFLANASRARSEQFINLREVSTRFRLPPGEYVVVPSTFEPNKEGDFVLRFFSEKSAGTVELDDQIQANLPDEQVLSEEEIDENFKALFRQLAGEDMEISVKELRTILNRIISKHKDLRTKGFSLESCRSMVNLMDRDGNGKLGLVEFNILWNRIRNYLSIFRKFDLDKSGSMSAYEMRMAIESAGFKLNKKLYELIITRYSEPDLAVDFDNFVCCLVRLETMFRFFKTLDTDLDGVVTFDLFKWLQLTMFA
T2 sequence (P04632 1-268 partner): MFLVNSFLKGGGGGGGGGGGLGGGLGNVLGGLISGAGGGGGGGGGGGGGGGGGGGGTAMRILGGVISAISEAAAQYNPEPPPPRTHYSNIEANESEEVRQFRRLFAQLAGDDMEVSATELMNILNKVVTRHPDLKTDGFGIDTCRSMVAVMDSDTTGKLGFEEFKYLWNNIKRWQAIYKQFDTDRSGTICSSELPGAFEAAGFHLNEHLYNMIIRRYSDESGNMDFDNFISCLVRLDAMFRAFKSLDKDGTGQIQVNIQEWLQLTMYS
How it was run: (§1)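 Kinetic AMC fluorescence (ex 390/em 460 nm), room temperature. Calpain-I 20 nM, 100 μM Suc-Leu-Tyr-AMC, imidazole/CaCl2 pH 7.3; cathepsins B 0.25 nM/100 μM Z-Phe-Arg-AMC, K 3 nM/10 μM Z-Gly-Pro-Arg-AMC, S 0.5 nM/20 μM Z-Val-Val-Arg-AMC, each MES/EDTA/cysteine pH 6.0. Ki from IC50 via Cheng-Prusoff, averaging 2–4 curves.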

[3] = molecular target: T3, cathepsin B isolated from human liver (Homo sapiens, UniProt P07858); assay: Cathepsin B enzyme inhibition in vitro (kinetic fluorescence assay); conditions: Ki(cathepsin B)/Ki(calpain) ratio
T3 construct: cathepsin B—isolated from human liver; purchased Calbiochem 219362; host or cells: human liver (tissue-derived)
How it was run: as §1

[4] = molecular target: T4, recombinant human cathepsin S (Homo sapiens, UniProt P25774); assay: Cathepsin S enzyme inhibition in vitro (kinetic fluorescence assay); conditions: Ki(cathepsin S)/Ki(calpain) ratio
T4 construct: purchased Calbiochem 219343; host or cells: E. coli
How it was run: as §1

[5] = molecular target: T5, cathepsin K activated from recombinant human procathepsin K (Homo sapiens, UniProt P43235); assay: Cathepsin K enzyme inhibition in vitro (kinetic fluorescence assay); conditions: Ki(cathepsin K)/Ki(calpain) ratio
T5 construct: purchased Calbiochem 342001; host or cells: E. coli
T5 sequence (P43235 115-329): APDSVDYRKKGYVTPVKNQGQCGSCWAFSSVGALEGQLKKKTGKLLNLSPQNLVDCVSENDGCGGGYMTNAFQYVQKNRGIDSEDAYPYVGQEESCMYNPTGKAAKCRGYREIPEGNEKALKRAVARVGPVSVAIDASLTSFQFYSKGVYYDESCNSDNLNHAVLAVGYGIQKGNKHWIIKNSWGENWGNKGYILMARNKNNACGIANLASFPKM
How it was run: as §1

T1 sequence (P07711 114-333): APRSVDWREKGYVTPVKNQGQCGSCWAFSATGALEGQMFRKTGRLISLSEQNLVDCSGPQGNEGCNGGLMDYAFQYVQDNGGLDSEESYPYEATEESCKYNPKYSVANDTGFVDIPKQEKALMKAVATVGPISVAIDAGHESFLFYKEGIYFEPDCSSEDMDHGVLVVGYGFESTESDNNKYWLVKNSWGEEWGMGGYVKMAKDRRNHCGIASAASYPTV
T4 sequence (P25774 115-331): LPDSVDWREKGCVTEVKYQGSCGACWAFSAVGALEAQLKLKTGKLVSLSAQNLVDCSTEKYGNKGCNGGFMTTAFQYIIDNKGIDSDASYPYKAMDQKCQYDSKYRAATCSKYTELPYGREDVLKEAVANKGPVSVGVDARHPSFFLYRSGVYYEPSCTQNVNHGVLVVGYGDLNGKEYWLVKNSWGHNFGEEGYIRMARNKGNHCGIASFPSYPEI

Row | Compound | Sel cat. L [1] | Ki [2] | Sel cat. B [3] | Sel cat. S [4] | Sel cat. K [5]
1 | O=C(NCc1ccc(F)cc1)C(=O)C(Cc1ccccc1)NC(=O)[C@H]1CCC(=O)N1Cc1ccccc1 (mixture of isomers) [Example 67, (2R)-1-Benzyl-N-(4-(4-fluorobenzylamino)-3,4-dioxo-1-phenylbutan-2-yl)-5-oxopyrrolidine-2-carboxamide] | +++ (Ki(cathepsin L)/Ki(calpain) ratio of >30) | < 50 nM | +++ (Ki(cathepsin B)/Ki(calpain) ratio of >30) | +++ (Ki(cathepsin S)/Ki(calpain) ratio of >100) | +++ (Ki(cathepsin K)/Ki(calpain) ratio of >30)
2 | NC(=O)C(=O)C(Cc1ccccc1)NC(=O)[C@H]1CCC(=O)N1Cc1cccc(F)c1 (stereo partly drawn) [Example 8, (2R)—N-(4-Amino-3,4-dioxo-1-phenylbutan-2-yl)-1-(3-fluorobenzyl)-5-oxopyrrolidine-2-carboxamide] | ++ (10<Ki(cathepsin B)/Ki(calpain)≦30) | 50 to 100 nM | +++ (Ki(cathepsin B)/Ki(calpain) ratio of >30) | +++ (Ki(cathepsin S)/Ki(calpain) ratio of >100) | ++ (10<Ki(cathepsin B)/Ki(calpain)≦30)
3 | NC(=O)C(=O)C(Cc1ccccc1)NC(=O)[C@H]1CCC(=O)N1Cc1c(F)cccc1F (stereo partly drawn) [Example 51, (2R)—N-(4-Amino-3,4-dioxo-1-phenylbutan-2-yl)-5-oxo-1-(2,6-difluorobenzyl)-pyrrolidine-2-carboxamide] | ++ (10<Ki(cathepsin B)/Ki(calpain)≦30) | 50 to 100 nM | ++ (10<Ki(cathepsin B)/Ki(calpain)≦30) | +++ (Ki(cathepsin S)/Ki(calpain) ratio of >100) | +++ (Ki(cathepsin K)/Ki(calpain) ratio of >30)
4 | O=C(NCc1nccs1)C(=O)C(Cc1ccccc1)NC(=O)[C@H]1CCC(=O)N1Cc1ccccc1 (mixture of isomers) [Example 59, (2R)-1-Benzyl-N-(3,4-dioxo-1-phenyl-4-(thiazol-2-ylmethylamino)butan-2-yl)-5-oxopyrrolidine-2-carboxamide] | ++ (10<Ki(cathepsin B)/Ki(calpain)≦30) | 100 to 600 nM | +++ (Ki(cathepsin B)/Ki(calpain) ratio of >30) | +++ (Ki(cathepsin S)/Ki(calpain) ratio of >100) | +++ (Ki(cathepsin K)/Ki(calpain) ratio of >30)
5 | N#Cc1cccc(CN2C(=O)CC[C@@H]2C(=O)NC(Cc2ccccc2)C(=O)C(N)=O)c1 (stereo partly drawn) [Example 16, (2R)—N-(4-Amino-3,4-dioxo-1-phenylbutan-2-yl)-1-(3-cyanobenzyl)-5-oxopyrrolidine-2-carboxamide] | ++ (10<Ki(cathepsin B)/Ki(calpain)≦30) | 100 to 600 nM | ++ (10<Ki(cathepsin B)/Ki(calpain)≦30) | + (10<Ki(cathepsin S)/Ki(calpain)≦30) | +++ (Ki(cathepsin K)/Ki(calpain) ratio of >30)
6 | CCNC(=O)C(=O)C(Cc1ccccc1)NC(=O)[C@H]1CCC(=O)N1Cc1c(Cl)cccc1Cl (mixture of isomers) [Example 62, (2R)-1-(2,6-Dichlorobenzyl)-N-(4-(ethylamino)-3,4-dioxo-1-phenylbutan-2-yl)-5-oxopyrrolidine-2-carboxamide] | ++ (10<Ki(cathepsin B)/Ki(calpain)≦30) | 100 to 600 nM | ++ (10<Ki(cathepsin B)/Ki(calpain)≦30) | ++ (30<Ki(cathepsin B)/Ki(calpain)≦100) | ++ (10<Ki(cathepsin B)/Ki(calpain)≦30)
7 | O=C(Nc1ccccc1)C(=O)C(Cc1ccccc1)NC(=O)[C@H]1CCC(=O)N1Cc1ccccc1 (mixture of isomers) [Example 65, (2R)-1-Benzyl-N-(3,4-dioxo-1-phenyl-4-(phenylamino)butan-2-yl)-5-oxopyrrolidine-2-carboxamide] | +++ (Ki(cathepsin L)/Ki(calpain) ratio of >30) | 50 to 100 nM | +++ (Ki(cathepsin B)/Ki(calpain) ratio of >30) | +++ (Ki(cathepsin S)/Ki(calpain) ratio of >100) | +++ (Ki(cathepsin K)/Ki(calpain) ratio of >30)
8 | O=C(NCc1ccc2c(c1)OCO2)C(=O)C(Cc1ccccc1)NC(=O)[C@H]1CCC(=O)N1Cc1ccccc1 (mixture of isomers) [Example 66, (2R)—N-(4-(Benzo[d][1,3]-dioxol-5-ylmethylamino)-3,4-dioxo-1-phenylbutan-2-yl)-1-benzyl-5-oxopyrrolidine-2-carboxamide] | ++ (10<Ki(cathepsin B)/Ki(calpain)≦30) | 50 to 100 nM | +++ (Ki(cathepsin B)/Ki(calpain) ratio of >30) | +++ (Ki(cathepsin S)/Ki(calpain) ratio of >100) | ++ (10<Ki(cathepsin B)/Ki(calpain)≦30)
